The values below come from US20240319211A1, “CONTENT CONVERSION METHOD OF FREE COMPONENTS BY TRANSFORMING ULTRAFILTRATION TO EQUILIBRIUM DIALYSIS” (HEFEI NOVA-MS BIOTECH MEDICAL EQUIPMENT CO., LTD, priority 2022, published 2024).

“And” between values parts separate entries of the source, which are not always exact repeats. Identical values can stand only once.

Data set [1] is described as follows: FT3 in serum by equilibrium dialysis (ED), LC-MS/MS. To be noted: for Concentration ED, Average: average of 10 samples; for Concentration ED: serum, individual samples No. 1-10. As for the experimental part: (§1) In a method in this embodiment, ultrafiltration and equilibrium dialysis are performed to separate free triiodothyronine (FT3) at 20° C., 25° C., 30° C., and 37° C., respectively. In practice, another temperature value may be used. Where
Equilibrium dialysis: 200 μL 4-hydroxyethyl piperazine ethanesulfonic acid solution is placed on the buffer side of the equilibrium plate, 200 μL serum is placed on the sample side. Subsequently, the equilibrium dialysis plate is dialyzed at 20° C., 25° C., 30° C., and 37° C. for 22 h, respectively.
Internal standard precipitation: 100 μL internal standard solution is added to 100 μL dialysate and vortexed well for 3 min. Then, centrifugation is performed at 4° C. and 12000 rpm for 10 min.
(§2) After the free T3 is separated by using ultrafiltration and equilibrium dialysis, the free T3 is detected by the following high-performance liquid chromatography tandem mass spectrometry parameters:
(§3) chromatographic column: Acquity UPLC BEH C18 (2.1×50 mm, 1.7 μm); column oven temperature: 30° C.; mobile phases: 0.1% formic acid aqueous solution (A)˜0.1% formic acid methanol (B); and gradient elution: […]
(§4) ion source: electrospray ion source in positive ion mode; spray voltage: 5500 V; ion source temperature: 550° C.; GS1: 50 psi; GS2: 50 psi; curtain gas: 30 psi; and multiple reaction monitoring: […]

The nature of data set [2]: FT3 in serum by ultrafiltration (UF), LC-MS/MS. The conditions noted are these: for Concentration UF, Average: average of 10 samples; for Concentration UF: serum, individual samples No. 1-10. As for the experimental part:
as §1
Ultrafiltration: 100 μL 4-hydroxyethyl piperazine ethanesulfonic acid solution is added to a 100 μL serum, and the solution is mixed well by pipettes. Subsequently, the obtained mixture is transferred to the activated ultrafiltration tube and centrifuged at 20° C., 25° C., 30° C., and 37° C., and 2000 g for 1 h, respectively.
Internal standard precipitation: 100 μL internal standard solution is added to 100 μL ultrafiltrate, and vortexed well for 3 min. Then, centrifugation is performed at 4° C. and 12000 rpm for 10 min.
as §2, §3, §4

A short description of data set [3]: FT4 in serum by ultrafiltration (UF), LC-MS/MS. The data set is classed as in vitro ADME, human. The conditions noted are these: for Concentration UF, Average: average of 10 samples; for Concentration UF: serum, individual samples No. 1-10. An excerpt:
(§5) In practice, other temperatures can also be used. […] Where

Data set [4] is described as follows: FT4 in serum by equilibrium dialysis (ED), LC-MS/MS. The data set is classed as in vitro ADME, human. To be noted: for Concentration ED, Average: average of 10 samples; for Concentration ED: serum, individual samples No. 1-10.
Text: as §5
(In general: In equilibrium dialysis free small molecules cross a membrane that holds back macromolecules.)

The nature of data set [5]: free testosterone in serum by equilibrium dialysis (ED), LC-MS/MS. To be noted: for Concentration ED, Average: average of 10 samples; for Concentration ED: serum, individual samples No. 1-10. The protocol: (§6) In practice, other temperatures can also be used. Subsequently, high-performance liquid chromatography tandem mass spectrometry is used for detection, and results are shown in Table 1. Where
Equilibrium dialysis: 200 μL 4-hydroxyethyl piperazine ethanesulfonic acid solution is placed on the buffer side of the equilibrium dialysis plate, 200 μL serum is placed on the sample side. Subsequently, the equilibrium dialysis plate is dialyzed at 20° C., 25° C., 30° C., and 37° C. for 22 h, respectively.
Solid-phase extraction: 20 μL internal standard solution is added to 200 μL dialysate, and vortexed well. The obtained mixture is added to an activated HLB solid-phase extraction: conditioning is performed twice by 300 μL 10% methanol aqueous solution, elution is performed twice by using 300 μL 90% methanol aqueous solution, eluent is merged and blown to dry by nitrogen, and finally, the obtained product is redissolved by 100 μL 50% methanol aqueous solution.
(§7) Chromatographic column: Acquity UPLC BEH C18 (2.1×50 mm, 1.7 μm); column oven temperature: 40° C.; mobile phases: 0.1% formic acid 2 mM ammonium acetate aqueous solution (A)˜methanol (B); and gradient elution: […]
as §4

Data set [6] in a line: free testosterone in serum by ultrafiltration (UF), LC-MS/MS. To be noted: for Concentration UF, Average: average of 10 samples; for Concentration UF: serum, individual samples No. 1-10. The protocol:
as §6
Ultrafiltration: 900 μL 4-hydroxyethyl piperazine ethanesulfonic acid solution is added to 300 μL serum, and the solution is mixed well by pipettes. Subsequently, the obtained mixture is transferred to the activated ultrafiltration tube and centrifuged at 20° C., 25° C., 30° C., and 37° C., and 2000 g for 1 h, respectively.
Solid-phase extraction: 20 μL internal standard solution is added to 600 μL ultrafiltrate, and vortexed well. The obtained mixture is added to an activated HLB solid-phase extraction: conditioning is performed twice by 300 μL 10% methanol aqueous solution, elution is performed twice by 300 μL 90% methanol aqueous solution, eluent is merged and blown to dry by nitrogen, and finally, the obtained product is redissolved by 100 μL 50% methanol aqueous solution.
as §7, §4

For the compound `N[C@@H](Cc1cc(I)c(Oc2ccc(O)c(I)c2)c(I)c1)C(=O)O` [FT3, triiodothyronine], the “Concentration ED, Average” value in data set [1] (20° C.) was determined as 2.40 pg/mL; in data set [1] (25° C.), 2.61 pg/mL; in data set [1] (30° C.), 2.77 pg/mL; in data set [1] (37° C.), 3.22 pg/mL. Also, the “Concentration ED” value is 2.45 pg/mL and 2.62 pg/mL and 2.25 pg/mL and 2.35 pg/mL and 2.48 pg/mL and 2.36 pg/mL and 2.27 pg/mL and 2.46 pg/mL and 2.42 pg/mL and 2.31 pg/mL in data set [1] (20° C.); 2.65 pg/mL and 2.75 pg/mL and 2.52 pg/mL and 2.61 pg/mL and 2.48 pg/mL and 2.54 pg/mL and 2.68 pg/mL and 2.70 pg/mL and 2.63 pg/mL and 2.57 pg/mL in data set [1] (25° C.); 2.72 pg/mL and 2.65 pg/mL and 2.85 pg/mL (2×) and 2.88 pg/mL and 2.68 pg/mL and 2.76 pg/mL and 2.78 pg/mL (2×) and 2.71 pg/mL in data set [1] (30° C.); 3.13 pg/mL and 3.22 pg/mL and 3.04 pg/mL and 3.32 pg/mL and 3.15 pg/mL and 3.31 pg/mL (2×) and 3.34 pg/mL and 3.28 pg/mL and 3.12 pg/mL in data set [1] (37° C.). Moreover, in data set [1] (37° C. equilibrium dialysis 22 h, 60 different serum specimens), the “2nd conc. (ED)” value was 3.05 and 3.18 and 3.17 and 3.22 and 3.04 and 3.24 and 3.19 and 3.48. The “Concentration UF, Average” value in data set [2] (20° C.) was 2.34 pg/mL; in data set [2] (25° C.), 2.58 pg/mL; in data set [2] (30° C.) it was 2.73 pg/mL; in data set [2] (37° C.), 3.19 pg/mL. Besides, the “Concentration UF” value in data set [2] (20° C.) is 2.54 pg/mL and 2.25 pg/mL and 2.36 pg/mL (2×) and 2.41 pg/mL and 2.32 pg/mL and 2.28 pg/mL and 2.17 pg/mL and 2.52 pg/mL and 2.23 pg/mL; in data set [2] (25° C.) it was 2.52 pg/mL and 2.62 pg/mL and 2.45 pg/mL and 2.68 pg/mL and 2.58 pg/mL and 2.46 pg/mL and 2.57 pg/mL and 2.65 pg/mL and 2.71 pg/mL and 2.53 pg/mL; in data set [2] (30° C.), 2.68 pg/mL and 2.75 pg/mL (2×) and 2.82 pg/mL and 2.66 pg/mL and 2.78 pg/mL and 2.58 pg/mL and 2.84 pg/mL and 2.72 pg/mL and 2.67 pg/mL; in data set [2] (37° C.), 3.05 pg/mL (2×) and 3.24 pg/mL and 3.13 pg/mL and 3.48 pg/mL and 3.20 pg/mL and 3.18 pg/mL and 3.27 pg/mL and 3.08 pg/mL and 3.17 pg/mL.
Take `N[C@@H](Cc1cc(I)c(Oc2cc(I)c(O)c(I)c2)c(I)c1)C(=O)O` [FT4, thyroxine]: the “Concentration UF, Average” value amounted to 6.85 pg/mL in data set [3] (20° C.), 8.51 pg/mL in data set [3] (25° C.), 10.58 pg/mL in data set [3] (30° C.) and 14.00 pg/mL in data set [3] (37° C.). Moreover, the “Concentration UF” value was 7.21 pg/mL and 6.77 pg/mL and 6.78 pg/mL (2×) and 6.40 pg/mL and 6.94 pg/mL and 6.85 pg/mL and 7.01 pg/mL and 6.90 pg/mL and 6.81 pg/mL in data set [3] (20° C.); 7.92 pg/mL and 8.97 pg/mL and 8.74 pg/mL and 8.58 pg/mL and 8.14 pg/mL and 8.06 pg/mL and 8.57 pg/mL and 8.72 pg/mL and 8.63 pg/mL and 8.76 pg/mL in data set [3] (25° C.); 10.73 pg/mL and 9.82 pg/mL and 10.55 pg/mL and 10.61 pg/mL and 10.97 pg/mL and 10.75 pg/mL and 10.82 pg/mL and 10.57 pg/mL and 10.33 pg/mL and 10.63 pg/mL in data set [3] (30° C.); 13.45 pg/mL and 13.82 pg/mL and 14.14 pg/mL and 13.57 pg/mL and 14.22 pg/mL and 14.58 pg/mL and 13.74 pg/mL and 14.05 pg/mL and 14.26 pg/mL and 14.16 pg/mL in data set [3] (37° C.). Moreover, the “Concentration ED, Average” value is 6.83 pg/mL in data set [4] (20° C.), 8.53 pg/mL in data set [4] (25° C.), 10.80 pg/mL in data set [4] (30° C.) and 14.22 pg/mL in data set [4] (37° C.). Besides, the “Concentration ED” value in data set [4] (20° C.) was 7.05 pg/mL (2×) and 6.91 pg/mL and 6.85 pg/mL and 6.76 pg/mL and 6.71 pg/mL and 6.42 pg/mL and 6.83 pg/mL and 6.84 pg/mL and 6.90 pg/mL; in data set [4] (25° C.) it was 8.37 pg/mL and 8.33 pg/mL and 8.83 pg/mL and 8.05 pg/mL and 8.24 pg/mL and 8.94 pg/mL and 8.47 pg/mL and 8.69 pg/mL and 8.73 pg/mL and 8.65 pg/mL; in data set [4] (30° C.), 10.91 pg/mL and 11.07 pg/mL and 11.18 pg/mL and 10.63 pg/mL (2×) and 10.46 pg/mL and 10.98 pg/mL and 10.74 pg/mL and 10.67 pg/mL and 10.75 pg/mL; in data set [4] (37° C.) it was 14.17 pg/mL and 14.64 pg/mL and 13.61 pg/mL and 14.22 pg/mL and 14.67 pg/mL and 14.63 pg/mL and 13.94 pg/mL and 14.15 pg/mL and 14.11 pg/mL and 14.06 pg/mL.
With `C[C@]12CC[C@H]3[C@@H](CCC4=CC(=O)CC[C@@]43C)[C@@H]1CC[C@@H]2O` [free testosterone, testosterone], the “Concentration ED, Average” value amounted to 4.08 pg/mL in data set [5] (20° C.), 4.55 pg/mL in data set [5] (25° C.), 4.93 pg/mL in data set [5] (30° C.) and 5.21 pg/mL in data set [5] (37° C.). Moreover, the “Concentration ED” value was 4.05 pg/mL (2×) and 4.17 pg/mL and 3.94 pg/mL and 4.21 pg/mL and 3.85 pg/mL and 4.18 pg/mL and 4.01 pg/mL and 4.16 pg/mL and 4.22 pg/mL in data set [5] (20° C.); 4.75 pg/mL and 4.61 pg/mL and 4.48 pg/mL and 4.56 pg/mL and 4.41 pg/mL and 4.62 pg/mL and 4.57 pg/mL and 4.42 pg/mL and 4.50 pg/mL and 4.54 pg/mL in data set [5] (25° C.); 5.04 pg/mL and 5.01 pg/mL and 4.95 pg/mL and 5.02 pg/mL and 4.85 pg/mL and 4.87 pg/mL and 4.91 pg/mL and 4.98 pg/mL and 4.84 pg/mL and 4.82 pg/mL in data set [5] (30° C.); 5.40 pg/mL and 4.95 pg/mL and 5.23 pg/mL and 5.42 pg/mL and 5.12 pg/mL and 5.32 pg/mL and 5.22 pg/mL and 5.27 pg/mL and 5.13 pg/mL and 5.07 pg/mL in data set [5] (37° C.). Also, the “Concentration UF, Average” value in data set [6] (20° C.) is on record as 4.12 pg/mL; in data set [6] (25° C.), 4.50 pg/mL; in data set [6] (30° C.), 4.81 pg/mL; in data set [6] (37° C.), 5.16 pg/mL. Moreover, the “Concentration UF” value in data set [6] (20° C.) was 4.26 pg/mL and 4.29 pg/mL and 4.01 pg/mL and 4.38 pg/mL and 3.98 pg/mL and 3.92 pg/mL and 4.15 pg/mL and 4.12 pg/mL and 3.97 pg/mL and 4.07 pg/mL; in data set [6] (25° C.) it was 4.37 pg/mL and 4.64 pg/mL (2×) and 4.51 pg/mL (2×) and 4.45 pg/mL and 4.39 pg/mL and 4.48 pg/mL and 4.43 pg/mL and 4.61 pg/mL; in data set [6] (30° C.), 4.69 pg/mL and 4.96 pg/mL (2×) and 4.83 pg/mL and 4.79 pg/mL and 4.58 pg/mL and 4.85 pg/mL and 4.91 pg/mL and 4.74 pg/mL and 4.77 pg/mL; in data set [6] (37° C.) it was 5.12 pg/mL and 5.28 pg/mL and 5.30 pg/mL and 5.04 pg/mL and 5.16 pg/mL (2×) and 5.18 pg/mL and 5.24 pg/mL and 5.03 pg/mL and 5.07 pg/mL.
